Measurements: US8895733B2 (Novartis AG, priority 2010, dated 2014)

Molecular target: T1, Nav 1.7 (Homo sapiens, UniProt Q15858)
T1 construct: expressed in transfected cells
Test: Whole-cell voltage clamp electrophysiology, automated patch clamp (marker c in Table of Examples)
Assay type: cell-based
Conditions: marker c = Automated patch clamp data; read-out: Nav 1.7 activity
How it was run: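 A voltage protocol weighted toward inactivated-state block was used to test compounds on stably expressing cells, with pulses from −65 mV holding to −10 mV test and −100 mV. Currents came from whole-cell automated patch-clamp recordings, either IonWorks Quattro or other automated instruments, usually in perforated-patch mode.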

T1 sequence (Q15858 whole entry): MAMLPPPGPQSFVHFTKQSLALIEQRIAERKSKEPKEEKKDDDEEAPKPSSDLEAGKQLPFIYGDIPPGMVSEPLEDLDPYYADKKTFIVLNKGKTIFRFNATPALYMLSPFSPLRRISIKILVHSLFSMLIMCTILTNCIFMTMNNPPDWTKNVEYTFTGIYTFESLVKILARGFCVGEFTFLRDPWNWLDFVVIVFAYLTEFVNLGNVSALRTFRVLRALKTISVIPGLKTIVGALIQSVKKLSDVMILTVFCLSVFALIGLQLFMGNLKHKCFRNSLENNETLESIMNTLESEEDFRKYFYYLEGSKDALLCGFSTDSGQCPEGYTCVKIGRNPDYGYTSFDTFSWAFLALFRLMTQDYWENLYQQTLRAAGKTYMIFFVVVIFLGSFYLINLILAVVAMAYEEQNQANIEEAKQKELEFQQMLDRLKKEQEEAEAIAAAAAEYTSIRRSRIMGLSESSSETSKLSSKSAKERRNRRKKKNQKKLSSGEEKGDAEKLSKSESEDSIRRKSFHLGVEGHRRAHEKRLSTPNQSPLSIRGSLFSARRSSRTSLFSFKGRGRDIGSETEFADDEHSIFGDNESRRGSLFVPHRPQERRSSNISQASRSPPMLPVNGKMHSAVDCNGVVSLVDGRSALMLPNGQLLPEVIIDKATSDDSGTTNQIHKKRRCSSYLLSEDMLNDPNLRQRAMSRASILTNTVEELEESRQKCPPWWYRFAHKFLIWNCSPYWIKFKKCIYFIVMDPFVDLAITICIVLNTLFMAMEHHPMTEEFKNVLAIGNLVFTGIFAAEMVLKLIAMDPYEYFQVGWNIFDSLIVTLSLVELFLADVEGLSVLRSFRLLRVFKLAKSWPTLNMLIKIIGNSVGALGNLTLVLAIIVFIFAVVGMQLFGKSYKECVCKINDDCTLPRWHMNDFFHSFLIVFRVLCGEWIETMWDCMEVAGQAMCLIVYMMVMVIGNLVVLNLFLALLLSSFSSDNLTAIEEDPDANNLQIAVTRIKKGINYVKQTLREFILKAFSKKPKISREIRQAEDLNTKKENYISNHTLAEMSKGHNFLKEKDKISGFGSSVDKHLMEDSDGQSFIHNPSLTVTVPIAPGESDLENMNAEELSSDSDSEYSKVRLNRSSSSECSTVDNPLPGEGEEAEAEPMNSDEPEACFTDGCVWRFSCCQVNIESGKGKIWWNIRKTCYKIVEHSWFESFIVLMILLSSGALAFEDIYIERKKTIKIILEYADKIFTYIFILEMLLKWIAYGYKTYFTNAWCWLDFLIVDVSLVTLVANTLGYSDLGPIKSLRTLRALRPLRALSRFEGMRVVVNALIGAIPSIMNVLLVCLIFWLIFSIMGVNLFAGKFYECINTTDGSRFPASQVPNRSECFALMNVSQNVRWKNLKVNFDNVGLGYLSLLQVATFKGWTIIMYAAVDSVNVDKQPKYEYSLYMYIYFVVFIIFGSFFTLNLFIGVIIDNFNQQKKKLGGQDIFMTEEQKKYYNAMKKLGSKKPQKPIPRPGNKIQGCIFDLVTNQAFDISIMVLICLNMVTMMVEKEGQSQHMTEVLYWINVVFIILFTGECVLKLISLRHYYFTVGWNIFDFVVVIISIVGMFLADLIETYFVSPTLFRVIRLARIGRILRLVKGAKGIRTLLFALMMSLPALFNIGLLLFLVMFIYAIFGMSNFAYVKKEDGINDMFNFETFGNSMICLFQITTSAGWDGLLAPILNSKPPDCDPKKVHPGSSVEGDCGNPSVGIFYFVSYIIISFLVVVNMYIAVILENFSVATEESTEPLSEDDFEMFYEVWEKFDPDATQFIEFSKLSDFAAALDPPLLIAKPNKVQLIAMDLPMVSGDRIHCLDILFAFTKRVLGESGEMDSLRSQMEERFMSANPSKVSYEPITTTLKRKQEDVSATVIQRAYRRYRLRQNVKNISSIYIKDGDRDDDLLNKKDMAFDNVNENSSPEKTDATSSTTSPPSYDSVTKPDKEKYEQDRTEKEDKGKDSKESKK

SMILES | IC50 [nM]
COc1ccccc1Cc1nc(-c2nc(N)nc(N(C)c3ccccc3)n2)no1 [Example 199, 6-{5-[(2-methoxyphenyl)methyl]-1,2,4-oxadiazol-3-yl}-2-N-methyl-2-N-phenyl-1,3,5-triazine-2,4-diamine] | 8730

Same assay, conditions: marker c: Automated patch clamp data; read-out: Nav 1.7 activity

IC50 [nM] | SMILES
1030 | CN(c1ccccc1)c1nc(N)nc(-c2noc(C3CCN(S(=O)(=O)CC(F)(F)F)CC3)n2)n1 [Example 169, 2-N-methyl-2-N-phenyl-6-(5-{1-[(2,2,2-trifluoroethane)sulfonyl]piperidin-4-yl}-1,2,4-oxadiazol-3-yl)-1,3,5-triazine-2,4-diamine]
1880 | CCS(=O)(=O)N1CCC(c2nc(-c3nc(N)nc(N(C)c4ccccc4)n3)no2)CC1 [Example 170, 6-{5-[1-(ethanesulfonyl)piperidin-4-yl]-1,2,4-oxadiazol-3-yl}-2-N-methyl-2-N-phenyl-1,3,5-triazine-2,4-diamine]
254 | CC(C)S(=O)(=O)N1CCC(c2nc(-c3nc(N)nc(N(C)c4ccccc4)n3)no2)CC1 [Example 171, 2-N-methyl-2-N-phenyl-6-{5-[1-(propane-2-sulfonyl)piperidin-4-yl]-1,2,4-oxadiazol-3-yl}-1,3,5-triazine-2,4-diamine]
340 | Nc1nc(Nc2ccccc2)nc(-c2noc(N3CCC(COCC(F)(F)F)CC3)n2)n1 [Example 174, 2-N-Phenyl-6-(5-{4-[(2,2,2-trifluoroethoxy)methyl]piperidin-1-yl}-1,2,4-oxadiazol-3-yl)-1,3,5-triazine-2,4-diamine]
20 | CN(c1ccccc1)c1nc(N)nc(-c2noc(N3CCC(CSCC(F)(F)F)CC3)n2)n1 [Example 175, 2-N-methyl-2-N-phenyl-6-[5-(4-{[(2,2,2-trifluoroethyl)sulfanyl]methyl}piperidin-1-yl)-1,2,4-oxadiazol-3-yl]-1,3,5-triazine-2,4-diamine]
306 | CC(C)SCC1CCN(c2nc(-c3nc(N)nc(N(C)c4ccccc4)n3)no2)CC1 [Example 177, 2-N-methyl-2-N-phenyl-6-(5-{4-[(propan-2-ylsulfanyl)methyl]piperidin-1-yl}-1,2,4-oxadiazol-3-yl)-1,3,5-triazine-2,4-diamine]
9080 | CC(C)S(=O)(=O)CC1CCN(c2nc(-c3nc(N)nc(N(C)c4ccccc4)n3)no2)CC1 [Example 181, 2-N-methyl-2-N-phenyl-6-(5-{4-[(propane-2-sulfonyl)methyl]piperidin-1-yl}-1,2,4-oxadiazol-3-yl)-1,3,5-triazine-2,4-diamine]
8690 | COC(=O)c1cccc(Nc2nc(N)nc(-c3noc(-c4ccc(OCC(F)(F)F)nc4)n3)n2)c1 [Example 182, methyl 3-[(4-amino-6-{5-[6-(2,2,2-trifluoroethoxy)pyridin-3-yl]-1,2,4-oxadiazol-3-yl}-1,3,5-triazin-2-yl)amino]benzoate]
87 | COc1ccc(F)cc1-c1nc(-c2nc(N)nc(N(C)c3cccc(C)c3)n2)no1 [Example 186]
287 | CS(=O)(=O)c1cccc(Nc2nc(N)nc(-c3noc(-c4ccc(OCC(F)(F)F)nc4)n3)n2)c1 [Example 189, 2-N-(3-methanesulfonylphenyl)-6-{5-[6-(2,2,2-trifluoroethoxy)pyridin-3-yl]-1,2,4-oxadiazol-3-yl}-1,3,5-triazine-2,4-diamine]
106 | CCN(c1ccccc1)c1nc(N)nc(-c2noc(-c3ccc(OC)cc3)n2)n1 [Example 190, 2-N-ethyl-6-[5-(4-methoxyphenyl)-1,2,4-oxadiazol-3-yl]-2-N-phenyl-1,3,5-triazine-2,4-diamine]
123 | CCN(c1ccccc1)c1nc(N)nc(-c2noc(-c3ccccc3Cl)n2)n1 [Example 192, 6-[5-(2-chlorophenyl)-1,2,4-oxadiazol-3-yl]-2-N-ethyl-2-N-phenyl-1,3,5-triazine-2,4-diamine]
764 | CCOc1ccccc1-c1nc(-c2nc(N)nc(N(CC)c3ccccc3)n2)no1 [Example 196, 6-[5-(2-ethoxyphenyl)-1,2,4-oxadiazol-3-yl]-2-N-ethyl-2-N-phenyl-1,3,5-triazine-2,4-diamine]
571 | CCN(c1ccccc1)c1nc(N)nc(-c2noc(-c3cc(F)ccc3OC)n2)n1 [Example 197, 2-N-ethyl-6-[5-(5-fluoro-2-methoxyphenyl)-1,2,4-oxadiazol-3-yl]-2-N-phenyl-1,3,5-triazine-2,4-diamine]

Second part, the compound before the results:

SMILES | IC50 [nM]
COCC1CCN(c2nc(-c3nc(N)nc(N(C)c4ccccc4)n3)no2)CC1 [Example 165, 6-{5-[4-(methoxymethyl)piperidin-1-yl]-1,2,4-oxadiazol-3-yl}-2-N-methyl-2-N-phenyl-1,3,5-triazine-2,4-diamine] | 7690
CN(c1ccccc1)c1nc(N)nc(-c2noc(N3CCC(COc4ccccc4)CC3)n2)n1 [Example 166, 2-N-methyl-6-{5-[4-(phenoxymethyl)piperidin-1-yl]-1,2,4-oxadiazol-3-yl}-2-N-phenyl-1,3,5-triazine-2,4-diamine] | 60
CCCS(=O)(=O)N1CCC(c2nc(-c3nc(N)nc(N(C)c4ccccc4)n3)no2)CC1 [Example 168, 2-N-methyl-2-N-phenyl-6-{5-[1 - (propane-1-sulfonyl)piperidin-4-yl]-1,2,4-oxadiazol-3-yl}-1,3,5-triazine-2,4-diamine] | 1470
CN(c1ccccc1)c1nc(N)nc(-c2noc(C3CCN(S(=O)(=O)c4ccccc4)CC3)n2)n1 [Example 172, 6-{5-[1-(benzenesulfonyl)piperidin-4-yl]-1,2,4-oxadiazol-3-yl}-2-N-methyl-2-N-phenyl-1,3,5-triazine-2,4-diamine] | 1080
CN(c1ccccc1)c1nc(N)nc(-c2noc(C3CCN(Cc4ccccc4)CC3)n2)n1 [Example 173, 6-[5-(1-Benzylpiperidin-4-yl)-1,2,4-oxadiazol-3-yl]-2-N-methyl-2-N-phenyl-1,3,5-triazine-2,4-diamine] | 1000
CN(c1ccccc1)c1nc(N)nc(-c2noc(N3CCC(CSc4ccccc4)CC3)n2)n1 [Example 176, 2-N-methyl-2-N-phenyl-6-(5-{4-[(phenylsulfanyl)methyl]piperidin-1-yl}-1,2,4-oxadiazol-3-yl)-1,3,5-triazine-2,4-diamine] | 223
CN(c1ccccc1)c1nc(N)nc(-c2noc(N3CCC(CS(=O)(=O)CC(F)(F)F)CC3)n2)n1 [Example 178, 2-N-Methyl-2-N-phenyl-6-[5-(4-{[(2,2,2-trifluoroethane)sulfonyl]methyl}piperidin-1-yl)-1,2,4-oxadiazol-3-yl]-1,3,5-triazine-2,4-diamine] | 2650
CN(c1ccccc1)c1nc(N)nc(-c2noc(N3CCC(CS(=O)(=O)c4ccccc4)CC3)n2)n1 [Example 179, 6-(5-{4-[(benzenesulfonyl)methyl]piperidin-1-yl}-1,2,4-oxadiazol-3-yl)-2-N-methyl-2-N-phenyl-1,3,5-triazine-2,4-diamine] | 810
CC(C)[S+]([O-])CC1CCN(c2nc(-c3nc(N)nc(N(C)c4ccccc4)n3)no2)CC1 (stereo not shown) [Example 180, 2-N-methyl-2-N-phenyl-6-(5-{4-[(propane-2-sulfinyl)methyl]piperidin-1-yl}-1,2,4-oxadiazol-3-yl)-1,3,5-triazine-2,4-diamine] | > 7710
CCOc1ccccc1-c1nc(-c2nc(N)nc(N(C)c3cccc(C)c3)n2)no1 [Example 183, 6-[5-(2-ethoxyphenyl)-1,2,4-oxadiazol-3-yl]-2-N-methyl-2-N-(3-methylphenyl)-1,3,5-triazine-2,4-diamine] | 67
COc1ccc(-c2nc(-c3nc(N)nc(N(C)c4cccc(C)c4)n3)no2)cc1 [Example 184, 6-[5-(4-methoxyphenyl)-1,2,4-oxadiazol-3-yl]-2-N-methyl-2-N-(3-methylphenyl)-1,3,5-triazine-2,4-diamine] | 62
COc1cccc(F)c1-c1nc(-c2nc(N)nc(N(C)c3cccc(C)c3)n2)no1 [Example 185, 6-[5-(2-fluoro-6-methoxyphenyl)-1,2,4-oxadiazol-3-yl]-2-N-methyl-2-N-(3-methylphenyl)-1,3,5-triazine-2,4-diamine] | 144
COc1cc(F)ccc1-c1nc(-c2nc(N)nc(N(C)c3cccc(C)c3)n2)no1 [Example 187, 6-[5-(4-fluoro-2-methoxyphenyl)-1,2,4-oxadiazol-3-yl]-2-N-methyl-2-N-(3-methylphenyl)-1,3,5-triazine-2,4-diamine] | 458
COc1ccc(-c2nc(-c3nc(N)nc(N(C)c4cccc(C)c4)n3)no2)c(OC)c1 [Example 188, 6-[5-(2,4-dimethoxyphenyl)-1,2,4-oxadiazol-3-yl]-2-N-methyl-2-N-(3-methylphenyl)-1,3,5-triazine-2,4-diamine] | 7630
CCN(c1ccccc1)c1nc(N)nc(-c2noc(-c3c(F)cccc3OC)n2)n1 [Example 191, 2-N-ethyl-6-[5-(2-fluoro-6-methoxyphenyl)-1,2,4-oxadiazol-3-yl]-2-N-phenyl-1,3,5-triazine-2,4-diamine] | 67
CCN(c1ccccc1)c1nc(N)nc(-c2noc(-c3ccc(F)cc3Cl)n2)n1 [Example 193, 6-[5-(2-chloro-4-fluorophenyl)-1,2,4-oxadiazol-3-yl]-2-N-ethyl-2-N-phenyl-1,3,5-triazine-2,4-diamine] | 83
Cc1cccc(N(C)c2nc(N)nc(-c3noc(-c4ccccc4OC(F)(F)F)n3)n2)c1 [Example 194, 2-N-methyl-2-N-(3-methylphenyl)-6-{5-[2-(trifluoromethoxy)phenyl]-1,2,4-oxadiazol-3-yl}-1,3,5-triazine-2,4-diamine] | 843
Cc1cccc(N(C)c2nc(N)nc(-c3noc(-c4ccccc4Cl)n3)n2)c1 [Example 195, 6-[5-(2-chlorophenyl)-1,2,4-oxadiazol-3-yl]-2-N-methyl-2-N-(3-methylphenyl)-1,3,5-triazine-2,4-diamine] | 431
CCN(c1ccccc1)c1nc(N)nc(-c2noc(-c3ccccc3OC(F)(F)F)n2)n1 [Example 198, 2-N-ethyl-2-N-phenyl-6-{5-[2-(trifluoromethoxy)phenyl]-1,2,4-oxadiazol-3-yl}-1,3,5-triazine-2,4-diamine] | 777
